Assay results reported in the supplement of paper PMC10307832.

Key:
Assay in all cases: relative viability (nuclei count vs DMSO), 5 days (fraction); higher = more cells survive
Dabrafenib = compound: CC(C)(C)c1nc(-c2cccc(NS(=O)(=O)c3c(F)cccc3F)c2F)c(-c2ccnc(N)n2)s1 [Dabrafenib]
Method in brief: (§1)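 On vehicle-anchored 1536-well plates, lung cancer cell lines held overnight at 37 °C were pinned with five library-drug doses (not always all listed) spaced by √10. With no medium change over 5 days, they were then fixed, permeabilised and Hoechst-stained in one step and imaged at 4×. MetaXpress counted nuclei, and viability is the median across plates of treated-well over vehicle-well nuclei. Acceptance needed control CV below 25% and at least one doubling.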

VX-702 = compound: NC(=O)c1ccc(N(C(N)=O)c2c(F)cccc2F)nc1-c1ccc(F)cc1F [VX-702]
Method in brief: as §1

VX-702 + Pemetrexed = compound: NC(=O)c1ccc(N(C(N)=O)c2c(F)cccc2F)nc1-c1ccc(F)cc1F [VX-702] + Nc1nc2[nH]cc(CCc3ccc(C(=O)N[C@@H](CCC(=O)O)C(=O)O)cc3)c2c(=O)[nH]1 [Pemetrexed] (partner 0.2 µM)
Method in brief: (§2)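 Relative viability divides the nuclei count in treated wells by that in vehicle wells. Lung cancer cell lines were seeded in 1536-well plates, dosed by pin tool the next day, and fixed and stained after 5 days in one step with final 0.05% Triton X-100, 1% formaldehyde and 1 ug/ml Hoechst. Dosing was a single drug or a fixed anchor-drug dose plus five library-drug doses (not always all listed) in √10 steps, and values are medians of duplicate plates imaged at 4×.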

Dabrafenib + Alpelisib = compound: CC(C)(C)c1nc(-c2cccc(NS(=O)(=O)c3c(F)cccc3F)c2F)c(-c2ccnc(N)n2)s1 [Dabrafenib] + Cc1nc(NC(=O)N2CCC[C@H]2C(N)=O)sc1-c1ccnc(C(C)(C)C(F)(F)F)c1 [Alpelisib] (partner 2 µM)
Method in brief: as §2

Row | Cell Line | relative viability (Dabrafenib; 0.003 µM) | relative viability (Dabrafenib; 0.009487 µM) | relative viability (Dabrafenib; 0.03 µM) | relative viability (Dabrafenib; 0.09487 µM) | relative viability (Dabrafenib; 0.3 µM) | relative viability (VX-702; 0.02 µM) | relative viability (VX-702; 0.2 µM) | relative viability (VX-702; 0.6325 µM) | relative viability (VX-702; 2 µM) | relative viability (VX-702 + Pemetrexed; first compound 0.02 µM) | relative viability (VX-702 + Pemetrexed; first compound 0.2 µM) | relative viability (VX-702 + Pemetrexed; first compound 0.6325 µM) | relative viability (VX-702 + Pemetrexed; first compound 2 µM) | relative viability (Dabrafenib + Alpelisib; first compound 0.003 µM) | relative viability (Dabrafenib + Alpelisib; first compound 0.009487 µM) | relative viability (Dabrafenib + Alpelisib; first compound 0.03 µM) | relative viability (Dabrafenib + Alpelisib; first compound 0.09487 µM) | relative viability (Dabrafenib + Alpelisib; first compound 0.3 µM)
1 | 201T | 0.958 | 1.01 | 0.914 | 0.987 | 1.04 | 0.981 | 1 | 1.01 | 0.976 | 0.36 | 0.331 | 0.339 | 0.34 | 1.06 | 1.08 | 0.932 | 1.01 | 1.05
2 | A549 | 0.928 | 1.03 | 0.93 | 0.93 | 0.969 | 0.999 | 0.928 | 1.02 | 1.07 |  |  |  |  | 0.641 | 0.949 | 0.83 | 0.754 | 0.705
3 | A-427 |  | 0.983 | 0.849 | 0.797 | 1.03 | 0.985 | 0.964 | 1.04 | 0.754 | 1.06 | 0.993 | 0.986 | 1.06 |  | 1.18 | 0.885 | 0.932 | 1.1
4 | ABC-1 | 0.833 | 1.06 | 0.871 | 0.844 | 1.02 | 0.979 | 0.813 | 0.903 | 1.02 |  |  |  |  |  | 0.934 | 1.14 | 1.13 | 1.28
5 | BEN |  | 1.05 |  | 0.889 | 1.07 | 0.853 | 0.879 | 0.866 | 1.06 | 0.825 | 0.689 | 0.623 | 0.86 |  | 1.16 |  | 0.974 | 1.17
6 | CAL-12T | 0.96 | 1.01 | 1.05 | 0.946 | 1.18 | 0.959 | 0.994 | 1.04 | 1.07 | 0.982 | 1.22 | 1.14 | 1.29 | 1.38 | 1.33 | 1.27 | 1.14 | 1.45
7 | COR-L23 | 0.976 | 1 | 0.968 | 0.93 | 0.998 | 1.17 | 1.05 | 1.16 | 1.21 | 0.203 | 0.183 | 0.21 | 0.23 | 0.715 | 0.784 | 0.713 | 0.678 | 0.85
8 | COR-L 105 | 0.851 | 0.995 | 0.927 | 0.955 | 1.13 | 0.941 | 0.961 | 0.879 | 0.861 | 1.06 | 1 | 1.14 | 1.25 | 0.829 | 1.08 | 1.16 | 1.13 | 1.14
9 | Calu-6 | 1.03 | 1.03 | 0.909 | 0.805 | 0.786 | 1.11 | 1 | 1.08 | 1.21 |  |  |  |  | 0.964 | 0.896 | 0.92 | 0.723 | 0.593
10 | ChaGo-K-1 | 0.787 | 0.951 | 0.876 | 0.912 | 1.01 | 1.03 | 0.993 | 0.994 | 1.02 | 0.249 | 0.257 | 0.269 | 0.26 |  |  |  |  | 
11 | EBC-1 | 0.856 | 0.987 | 0.895 | 0.533 | 0.391 | 1.08 | 0.999 | 0.968 | 1.08 |  |  |  |  | 0.71 | 0.649 | 0.563 | 0.264 | 0.24
12 | IA-LM | 1 | 0.84 | 0.984 | 0.58 | 0.405 | 0.956 | 0.896 | 0.92 | 1.04 |  |  |  |  | 0.613 | 0.607 | 0.72 | 0.242 | 0.0678
13 | NCI-H522 |  | 1.2 | 1 | 0.97 | 1.07 | 0.989 | 0.982 | 0.928 | 0.992 | 1.08 | 0.891 | 0.971 | 0.999 |  |  |  |  | 
14 | NCI-H727 |  | 0.998 | 0.782 | 0.902 | 1.1 | 1.09 | 1 | 0.84 | 1.04 |  |  |  |  |  | 0.757 | 0.519 | 0.647 | 0.638
15 | NCI-H1299 | 0.991 | 0.988 | 0.963 | 0.92 | 0.842 | 1.09 | 0.994 | 1.07 | 1.12 |  |  |  |  | 1.14 | 0.982 | 1.03 | 0.87 | 0.757
16 | NCI-H1648 | 1.02 | 0.861 | 0.814 | 1.12 | 1.17 | 0.926 | 0.877 | 0.688 | 0.63 | 0.737 | 0.617 | 0.75 | 0.818 |  |  |  |  | 
17 | NCI-H1650 | 0.944 | 1.26 | 0.854 | 1.07 | 1.36 | 1 | 1.01 | 1.09 | 1.02 | 0.325 | 0.34 | 0.384 | 0.403 |  |  |  |  | 
18 | NCI-H1703 | 1 | 1.12 | 0.887 | 0.843 | 1.14 | 0.936 | 0.91 | 0.849 | 1.21 |  |  |  |  | 0.356 | 0.309 | 0.291 | 0.379 | 0.362
19 | NCI-H2342 | 0.864 | 0.988 | 0.856 | 1.06 | 1.1 | 0.987 | 1.07 | 0.903 | 1.09 | 0.771 | 0.857 | 0.796 | 0.796 |  |  |  |  | 
20 | SW 900 |  | 0.84 | 0.589 | 0.665 | 1.02 | 0.885 | 0.82 | 0.775 | 1.02 | 0.51 | 0.488 | 0.474 | 0.464 |  |  |  |  | 
